Data taken from ChEMBL document CHEMBL4613212, “Insights of synthetic analogues of anti-leprosy agents” (Bioorg Med Chem, 2019).

Key:
[1] = Plasma concentration in rifampin-susceptible Mycobacterium leprae infected in BALB/c mouse at 6 mg/kg administered with food daily for 1 week by high-pressure liquid chromatography analysis; type: ADME, organism-based; details: po
[2] = Plasma concentration in rifampin-susceptible Mycobacterium leprae infected in BALB/c mouse at 6 mg/kg administered with food daily for 2 weeks by high-pressure liquid chromatography analysis; type: ADME, organism-based; details: po
[3] = Plasma concentration in rifampin-susceptible Mycobacterium leprae infected in BALB/c mouse at 6 mg/kg administered with food daily for 4 weeks by high-pressure liquid chromatography analysis; type: ADME, organism-based; details: po
[4] = test system: Mycobacterium leprae; experiment: Anti-leprotic activity against rifampicin-susceptible Mycobacterium leprae subcultures at 4 weeks assessed as ATP level per 10^7 cells at 0.2 mg/L measured by bioluminescence assay (reference value: 425 +/- 64 pg); type: functional
[5] = test system: Mycobacterium leprae; experiment: Anti-leprotic activity against rifampicin-susceptible Mycobacterium leprae subcultures at 4 weeks assessed as ATP level per 10^7 cells at 0.025 mg/L measured by bioluminescence assay (reference value: 425 +/- 64 pg); type: functional
[6] = test system: Mycobacterium leprae; experiment: Anti-leprotic activity against rifampicin-susceptible Mycobacterium leprae primary cultures at 4 weeks assessed as ATP level per 10^7 cells at 0.05 mg/L measured by bioluminescence assay (reference value: 332 +/- 46 pg); type: functional
[7] = test system: Mycobacterium leprae; experiment: Anti-leprotic activity against rifampicin-susceptible Mycobacterium leprae primary cultures at 4 weeks assessed as ATP level per 10^7 cells at 0.025 mg/L measured by bioluminescence assay (reference value: 332 +/- 46 pg); type: functional
[8] = test system: Mycobacterium leprae; experiment: Anti-leprotic activity against rifampicin-susceptible Mycobacterium leprae subcultures at 4 weeks assessed as ATP level per 10^7 cells at 0.1 mg/L measured by bioluminescence assay (reference value: 425 +/- 64 pg); type: functional
[9] = test system: Mycobacterium leprae; experiment: Anti-leprotic activity against rifampicin-susceptible Mycobacterium leprae subcultures at 4 weeks assessed as ATP level per 10^7 cells at 0.05 mg/L measured by bioluminescence assay (reference value: 425 +/- 64 pg); type: functional
[10] = test system: Mycobacterium leprae; experiment: Anti-leprotic activity against rifampicin-susceptible Mycobacterium leprae primary cultures at 4 weeks assessed as ATP level per 10^7 cells at 0.1 mg/L measured by bioluminescence assay (reference value: 332 +/- 46 pg); type: functional
[11] = test system: Mycobacterium leprae; experiment: Anti-leprotic activity against rifampicin-susceptible Mycobacterium leprae primary cultures at 4 weeks assessed as ATP level per 10^7 cells at 0.2 mg/L measured by bioluminescence assay (reference value: 332 +/- 46 pg); type: functional
[12] = test system: Mycobacterium leprae; experiment: Anti-leprotic activity against rifampicin-susceptible Mycobacterium leprae primary cultures at 4 weeks assessed as [3H]thymidine uptake per 5 times 10^7 cells at 0.025 mg/L incubated for 24 hrs (reference value: 1.05 +/- 0.16 pmol); type: functional
[13] = test system: Mycobacterium leprae; experiment: Anti-leprotic activity against rifampicin-susceptible Mycobacterium leprae primary cultures at 4 weeks assessed as [3H]thymidine uptake per 5 times 10^7 cells at 0.05 mg/L incubated for 24 hrs (reference value: 1.05 +/- 0.16 pmol); type: functional
[14] = test system: Mycobacterium leprae; experiment: Anti-leprotic activity against rifampicin-susceptible Mycobacterium leprae primary cultures at 4 weeks assessed as [3H]thymidine uptake per 5 times 10^7 cells at 0.1 mg/L incubated for 24 hrs (reference value: 1.05 +/- 0.16 pmol); type: functional
[15] = test system: Mycobacterium leprae; experiment: Anti-leprotic activity against rifampicin-susceptible Mycobacterium leprae primary cultures at 4 weeks assessed as [3H]thymidine uptake per 5 times 10^7 cells at 0.2 mg/L incubated for 24 hrs (reference value: 1.05 +/- 0.16 pmol); type: functional
[16] = test system: Mycobacterium leprae; experiment: Anti-leprotic activity against rifampicin-susceptible Mycobacterium leprae subcultures at 4 weeks assessed as [3H]thymidine uptake per 5 times 10^7 cells at 0.025 mg/L incubated for 24 hrs (reference value: 1.41 +/- 0.20 pmol); type: functional
[17] = test system: Mycobacterium leprae; experiment: Anti-leprotic activity against rifampicin-susceptible Mycobacterium leprae subcultures at 4 weeks assessed as [3H]thymidine uptake per 5 times 10^7 cells at 0.05 mg/L incubated for 24 hrs (reference value: 1.41 +/- 0.20 pmol); type: functional
[18] = test system: Mycobacterium leprae; experiment: Anti-leprotic activity against rifampicin-susceptible Mycobacterium leprae subcultures at 4 weeks assessed as [3H]thymidine uptake per 5 times 10^7 cells at 0.1 mg/L incubated for 24 hrs (reference value: 1.41 +/- 0.20 pmol); type: functional
[19] = test system: Mycobacterium leprae; experiment: Anti-leprotic activity against rifampicin-susceptible Mycobacterium leprae subcultures at 4 weeks assessed as [3H]thymidine uptake per 5 times 10^7 cells at 0.2 mg/L incubated for 24 hrs (reference value: 1.41 +/- 0.20 pmol); type: functional
[20] = test system: Mycobacterium leprae; experiment: Anti-leprotic activity against Mycobacterium leprae infected in BALB/c mouse assessed as time delay in bacterial multiplication in footpad at 0.0045 g/100g of diet administered via feed starting 60 or 75 day post infection up to 90 days by Shepard's kinetic method; type: functional
[21] = test system: Mycobacterium leprae; experiment: Anti-leprotic activity against Mycobacterium leprae infected in BALB/c mouse assessed as time delay in bacterial multiplication in footpad at 0.0087 g/100g of diet administered via feed starting 60 or 75 day post infection up to 90 days by Shepard's kinetic method; type: functional
[22] = test system: Mycobacterium leprae; experiment: Anti-leprotic activity against Mycobacterium leprae infected in BALB/c weanling mouse assessed as bacteria killing at 100 mg/kg, ip administrated for 60 days and measured after 1 year by most probable number technique analysis relative to control; type: functional
[23] = test system: Mycobacterium leprae; experiment: Anti-leprotic activity against Mycobacterium leprae infected in BALB/c weanling mouse assessed as bacteria killing at 100 mg/kg, ip administrated for 60 days and measured after 1 year by Spearman-Karber technique analysis relative to control; type: functional
[24] = test system: Mycobacterium tuberculosis; experiment: Antitubercular activity against Mycobacterium tuberculosis H37Rv ATCC 27294 assessed as inhibition of [3H]-thymidine incorporation at 1 ug/ml relative to control; type: functional

SMILES: OO [HYDROGEN PEROXIDE]
- concentration at 168 h [1]: 42 ng/mL
- concentration at 336 h [2]: 50 ng/mL
- concentration at 672 h [3]: 55 ng/mL

SMILES: CO[C@H]1/C=C/O[C@@]2(C)Oc3c(C)c(O)c4c(=O)c(c5oc6cc(N7CCN(CC(C)C)CC7)cc(O)c6nc-5c4c3C2=O)NC(=O)/C(C)=C\C=C\[C@H](C)[C@H](O)[C@@H](C)[C@@H](O)[C@@H](C)[C@H](OC(C)=O)[C@@H]1C [RIFALAZIL]
- Activity [4]: 0 pg
- Activity [5]: 211 pg
- Activity [6]: 0 pg
- Activity [7]: 227 pg
- Activity [8]: 0 pg
- Activity [9]: 0 pg
- Activity [10]: 0 pg
- Activity [11]: 0 pg
- Activity [12]: 0.72 pmol
- Activity [13]: 0 pmol
- Activity [14]: 0 pmol
- Activity [15]: 0 pmol
- Activity [16]: 0.73 pmol
- Activity [17]: 0 pmol
- Activity [18]: 0 pmol
- Activity [19]: 0 pmol

SMILES: Nc1ccc([S+]([O-])c2ccc(N)cc2)cc1
- Time [20]: 90 days

SMILES: Nc1ccc(Sc2ccc(N)cc2)cc1 [4,4'-THIODIANILINE]
- Time [21]: 68 days

SMILES: NCC[C@H](O)C(=O)N[C@@H]1C[C@H](N)[C@@H](O[C@H]2O[C@H](CN)[C@@H](O)[C@H](O)[C@H]2O)[C@H](O)[C@H]1O[C@H]1O[C@H](CO)[C@@H](O)[C@H](N)[C@H]1O [AMIKACIN]
- Activity [22]: 97.3%
- Activity [23]: 96%

SMILES: NC[C@H]1O[C@H](O[C@H]2[C@H](O)[C@@H](O[C@H]3O[C@H](CO)[C@@H](O)[C@H](N)[C@H]3O)[C@H](N)C[C@@H]2N)[C@H](O)[C@@H](O)[C@@H]1O [KANAMYCIN]
- Activity [22]: 99.8%
- Activity [23]: 99.7%

SMILES: c1ccc(Cn2cnc3c(-c4ccccc4)ncnc32)cc1
- inhibition at 1 µg/mL [24]: < 10%
